Reference: the supplement of paper PMC7214452

Columns and labels:
Assay in all cases: normalized area under the dose-response curve (viability relative to DMSO control) (fraction); higher = less sensitive (more viable cells)
Conditions in all cases: exposure time not given
[1] = system: KMS26 (cancer type: MM)
Procedure: (§1)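 25 myeloma and 15 non-Hodgkin lymphoma cell lines were exposed to each of 76 drugs as 7-point log dilutions (0.01 nM–10 µM) in duplicate. Viability was read with CellTiter-Glo and normalised to DMSO (0.1%) and staurosporine (10 µM) plate controls. Normalised AUC was calculated by the trapezoidal method relative to the negative control.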

[2] = system: OCI-MY5 (cancer type: MM)
Procedure: as §1

[3] = system: FR4 (cancer type: MM)
Procedure: as §1

[4] = system: Se-Ax (cancer type: TCL)
Procedure: as §1

[5] = system: OPM2 (cancer type: MM)
Procedure: as §1

[6] = system: Granta-519 (cancer type: Mantle)
Procedure: as §1

[7] = system: Karpas-299 (cancer type: TCL)
Procedure: as §1

[8] = system: MM1.R (cancer type: MM)
Procedure: as §1

[9] = system: KMS11 (cancer type: MM)
Procedure: as §1

[10] = system: XG2 (cancer type: MM)
Procedure: as §1

[11] = system: OCI-MY7 (cancer type: MM)
Procedure: as §1

[12] = system: OCI-MY5/CRBN (cancer type: MM)
Procedure: as §1

[13] = system: JeKo-1 (cancer type: Mantle)
Procedure: as §1

[14] = system: KMS28BM (cancer type: MM)
Procedure: as §1

[15] = system: L363 (cancer type: MM)
Procedure: as §1

[16] = system: OCI-LY19 (cancer type: DLBCL)
Procedure: as §1

[17] = system: RPMI 8226 (cancer type: MM)
Procedure: as §1

[18] = system: AMO1 (cancer type: MM)
Procedure: as §1

[19] = system: U266 (cancer type: MM)
Procedure: as §1

[20] = system: KMS34 (cancer type: MM)
Procedure: as §1

[21] = system: SR-786 (cancer type: TCL)
Procedure: as §1

[22] = system: OCI-LY3 (cancer type: DLBCL)
Procedure: as §1

[23] = system: LP1 (cancer type: MM)
Procedure: as §1

[24] = system: SKMM2 (cancer type: MM)
Procedure: as §1

[25] = system: KMS18 (cancer type: MM)
Procedure: as §1

[26] = system: Mino (cancer type: Mantle)
Procedure: as §1

[27] = system: HuT 78 (cancer type: TCL)
Procedure: as §1

[28] = system: OCI-LY1 (cancer type: DLBCL)
Procedure: as §1

[29] = system: MM1.S (cancer type: MM)
Procedure: as §1

[30] = system: JJN3 (cancer type: MM)
Procedure: as §1

[31] = system: SU-DHL1 (cancer type: TCL)
Procedure: as §1

[32] = system: NCI-H929 (cancer type: MM)
Procedure: as §1

[33] = system: KMS28PE (cancer type: MM)
Procedure: as §1

[34] = system: JVM2 (cancer type: Mantle)
Procedure: as §1

[35] = system: EJM (cancer type: MM)
Procedure: as §1

[36] = system: KMS12PE (cancer type: MM)
Procedure: as §1

[37] = system: OCI-MY5/Vec (cancer type: MM)
Procedure: as §1

[38] = system: SU-DHL2 (cancer type: DLBCL)
Procedure: as §1

[39] = system: My-La (cancer type: TCL)
Procedure: as §1

[40] = system: SU-DHL6 (cancer type: DLBCL)
Procedure: as §1

| SMILES | normalized area under the dose-response curve [1] | normalized area under the dose-response curve [2] | normalized area under the dose-response curve [3] | normalized area under the dose-response curve [4] | normalized area under the dose-response curve [5] | normalized area under the dose-response curve [6] | normalized area under the dose-response curve [7] | normalized area under the dose-response curve [8] | normalized area under the dose-response curve [9] | normalized area under the dose-response curve [10] | normalized area under the dose-response curve [11] | normalized area under the dose-response curve [12] | normalized area under the dose-response curve [13] | normalized area under the dose-response curve [14] | normalized area under the dose-response curve [15] | normalized area under the dose-response curve [16] | normalized area under the dose-response curve [17] | normalized area under the dose-response curve [18] | normalized area under the dose-response curve [19] | normalized area under the dose-response curve [20] | normalized area under the dose-response curve [21] | normalized area under the dose-response curve [22] | normalized area under the dose-response curve [23] | normalized area under the dose-response curve [24] | normalized area under the dose-response curve [25] | normalized area under the dose-response curve [26] | normalized area under the dose-response curve [27] | normalized area under the dose-response curve [28] | normalized area under the dose-response curve [29] | normalized area under the dose-response curve [30] | normalized area under the dose-response curve [31] | normalized area under the dose-response curve [32] | normalized area under the dose-response curve [33] | normalized area under the dose-response curve [34] | normalized area under the dose-response curve [35] | normalized area under the dose-response curve [36] | normalized area under the dose-response curve [37] | normalized area under the dose-response curve [38] | normalized area under the dose-response curve [39] | normalized area under the dose-response curve [40] |
| --- | --- | --- | --- | --- | --- | --- | --- | --- | --- | --- | --- | --- | --- | --- | --- | --- | --- | --- | --- | --- | --- | --- | --- | --- | --- | --- | --- | --- | --- | --- | --- | --- | --- | --- | --- | --- | --- | --- | --- | --- |
| CO[C@H]1C[C@@H]2CC[C@@H](C)[C@@](O)(O2)C(=O)C(=O)N2CCCC[C@H]2C(=O)O[C@H]([C@H](C)C[C@@H]2CC[C@@H](OCCO)[C@H](OC)C2)CC(=O)[C@H](C)/C=C(\C)[C@@H](O)[C@@H](OC)C(=O)[C@H](C)C[C@H](C)/C=C/C=C/C=C/1C [Everolimus] | 0.76 | 0.676 | 0.758 | 0.545 | 0.593 | 0.783 | 0.682 | 0.63 | 0.674 | 0.505 | 0.83 | 0.829 | 0.876 | 0.813 | 0.627 | 0.592 | 0.769 | 0.637 | 0.606 | 0.557 | 0.729 | 0.785 | 0.831 | 0.802 | 0.617 | 0.72 | 0.699 | 0.665 | 0.63 | 0.656 | 0.639 | 0.71 | 0.699 | 0.64 | 0.661 | 0.72 | 0.819 | 0.566 | 0.711 | 0.685 |
| Nc1nc(F)nc2c1ncn2[C@@H]1O[C@H](COP(=O)(O)O)[C@@H](O)[C@@H]1O [Fludarabine phosphate] | 0.863 | 0.788 | 0.858 | 0.798 | 0.859 | 0.949 | 0.885 | 0.92 | 0.746 | 0.857 | 0.95 | 0.972 | 0.912 | 0.834 | 0.781 | 1.02 | 0.767 | 0.813 | 0.812 | 0.785 | 0.914 | 0.962 | 0.938 | 0.88 | 0.894 | 0.844 | 0.911 | 0.866 | 0.87 | 0.934 | 0.888 | 0.9 | 0.767 | 0.855 | 0.882 | 0.94 | 1 | 0.918 | 0.879 | 0.927 |
| C=CC(=O)N1CCC[C@@H](n2nc(-c3ccc(Oc4ccccc4)cc3)c3c(N)ncnc32)C1 [Ibrutinib] | 0.763 | 0.628 | 0.793 | 0.739 | 0.676 | 0.798 | 0.845 | 0.77 | 0.738 | 0.863 | 1 | 0.937 | 0.686 | 0.786 | 0.759 | 0.865 | 0.765 | 0.715 | 0.726 | 0.518 | 0.825 | 0.829 | 0.892 | 0.922 | 0.916 | 0.681 | 0.928 | 0.636 | 0.81 | 0.728 | 0.746 | 0.84 | 0.723 | 0.668 | 0.857 | 0.74 | 0.88 | 0.903 | 0.782 | 0.852 |
| COc1cc(C(=O)O)ccc1NC(=O)[C@@H]1N[C@@H](CC(C)(C)C)[C@](C#N)(c2ccc(Cl)cc2F)[C@H]1c1cccc(Cl)c1F [Idasanutlin] | 0.798 | 0.834 | 0.837 | 0.82 | 0.861 | 0.873 | 0.86 | 0.84 | 0.868 | 0.838 | 0.92 | 0.852 | 0.852 | 0.935 | 0.834 | 0.92 | 0.943 | 0.732 | 0.773 | 0.751 | 0.861 | 0.967 | 0.955 | 0.962 | 0.831 | 0.928 | 0.825 | 0.959 | 0.81 | 0.88 | 0.877 | 0.79 | 0.922 | 0.832 | 0.858 | 0.96 | 0.902 | 0.961 | 0.937 | 0.898 |
| CC[C@H](Nc1ncnc2[nH]cnc12)c1nc2cccc(F)c2c(=O)n1-c1ccccc1 [Idelalisib] | 0.876 | 0.742 | 0.872 | 0.731 | 0.931 | 0.78 | 0.891 | 0.74 | 0.87 | 0.832 | 0.89 | 0.941 | 0.842 | 0.818 | 0.815 | 0.806 | 0.826 | 0.831 | 0.859 | 0.728 | 0.916 | 0.809 | 0.832 | 0.897 | 0.978 | 0.882 | 0.85 | 0.737 | 0.78 | 0.834 | 0.782 | 0.78 | 0.879 | 0.606 | 0.942 | 0.85 | 0.903 | 0.962 | 0.81 | 0.694 |
| Cc1ccc(NC(=O)c2ccc(CN3CCN(C)CC3)cc2)cc1Nc1nccc(-c2cccnc2)n1 [Imatinib] | 0.918 | 0.793 | 0.816 | 0.79 | 0.752 | 0.943 | 0.876 | 0.84 | 0.714 | 0.839 | 0.93 | 0.892 | 0.915 | 0.902 | 0.749 | 0.928 | 0.885 | 0.789 | 0.783 | 0.562 | 0.934 | 0.935 | 0.785 | 0.926 | 0.807 | 0.958 | 0.9 | 1 | 0.88 | 0.789 | 0.774 | 0.93 | 0.79 | 0.759 | 0.887 | 0.9 | 0.804 | 0.943 | 0.98 | 0.92 |
| Nc1cccc2c1CN(C1CCC(=O)NC1=O)C2=O (stereo not given) [Lenalidomide] | 0.785 | 0.786 | 0.852 | 0.709 | 0.846 | 0.891 | 0.875 | 0.68 | 0.758 | 0.861 | 0.78 | 0.928 | 0.874 | 0.819 | 0.785 | 0.758 | 0.915 | 0.799 | 0.858 | 0.662 | 0.992 | 0.802 | 0.847 | 0.874 | 0.805 | 0.897 | 0.828 | 0.825 | 0.66 | 0.822 | 0.812 | 0.74 | 0.899 | 0.657 | 0.836 | 0.74 | 0.999 | 0.785 | 0.944 | 0.847 |
| COc1cc2nccc(Oc3ccc(NC(=O)NC4CC4)c(Cl)c3)c2cc1C(N)=O [Lenvatinib] | 0.884 | 0.84 | 1.02 | 0.883 | 0.892 | 0.948 | 0.885 | 0.85 | 0.814 | 0.905 | 0.92 | 0.944 | 0.938 | 0.877 | 0.88 | 0.87 | 0.918 | 0.963 | 0.992 | 0.912 | 0.953 | 0.931 | 0.863 | 0.943 | 0.977 | 0.97 | 0.866 | 0.936 | 0.88 | 0.897 | 0.909 | 0.92 | 0.877 | 0.723 | 0.97 | 0.94 | 0.949 | 0.937 | 0.94 | 0.964 |
